Data set [1] in a line: Live/Dead viability assay. It is filed as cell-based. The conditions noted are these: mouse; immobilized on TiO2 substrates, cultured 24 hours. The method, then: The toxicity of the dendron of the embodiments of the present invention was tested using mouse calvarial pre-osteoblast cells ([…]) cells. The MC3T3-E1 cells were seeded on the TiO2 substrates with immobilized FITC-labeled OGP-Cat and cultured for 24 hours. […] The cells were well spread on the peptide-bearing surfaces, which is a consistent with an adherent proliferating cell population. See also, Example 17.
MC3T3-E1 mouse preosteoblast (passage 17) were expanded and cultured in α-MEM media (Gibco, Life Technologies, Grand Island, N.Y.) supplemented with 10% fetal bovine serum (FBS) (Invitrogen), 100 units/mL penicillin (Invitrogen), and 100 μg/mL streptomycin (Invitrogen) at 37° C. in a 5% CO2 humidified atmosphere. The cells were subcultured every 3 days in the presence of 0.25% (w/v) trypsin and 0.5% (w/v) ethylenediaminetetraacetic acid tetrasodium salt (EDTA) solution. […]
Viability of the cell culture of Example 16 above was evaluated using a Live/Dead viability/cytotoxicity kit (Invitrogen, UK). […] The staining solution was removed and the samples were viewed under the IX81 fluorescence microscope (Olympus) with 494 nm (green, Calcein) and 528 nm (red, EthD-1) emission filters. For quantitative analysis a total of 250 cells were counted from each sample over 25 randomly chosen areas and the viable and non-viable cells counts were recorded.

The nature of data set [2]: Fluorescence intensity of FITC-labeled OGP-Cat immobilized on TiO2. In kind it is physicochemical. Particulars: 3 days in 25 mM HEPES buffer pH 7.4. The method, then: Fluorescein-labeled modular peptide (FITC-labeled OGP-Cat) was also synthesized to visualize the presence of the immobilized peptides on TiO2 surface using fluorescence microscopy. (See, Example 13). After immobilization of FITC-labeled OGP-Cat onto TiO2 surfaces, the fluorescence intensity was much stronger compared to the control sample, which incubating TiO2-coated substrates in a solution of FITC at identical concentration. […] See, FIGS. 10A-B.
To study the stability of sequestered modular peptides on targeting surfaces, the modular peptide immobilized TiO2 substrates were immersed in 25 mM HEPES buffer (pH=7.4 at 25° C.) and incubated for different durations. The mean intensity of FITC-labeled OGP-Cat immobilized TiO2 substrates after incubation was quantified to detect the diffusion of FITC-labeled OGP-Cat into surrounding solution. (See FIG. 11). […] It is believed that the mismatch of retention time for the monovalent ligands may be attributed to the sensitivity difference of XPS and fluorescence microscopy. […]
The florescence intensity of FITC-OGP-(Cat)n (n=1, 2, and 4) on TiO2, Fe2O3, Fe3O4, ZrO2, CeO2, SiO2, and Au substrates was viewed with an inverted IX81 Microscope (Olympus, Center Valley, Pa.) with mercury bulb excitation and the appropriate filters. […] The mean intensity was calculated based on at least 10 randomly chosen sites observed under the same conditions.

Data set [3] is described as follows: QCM-d adsorption of catechol-functionalized dendrons to TiO2 surface. In kind it is binding. The conditions noted are these: for concentration to obtain ~6 Hz frequency shift: TiO2, 25° C., pH 7.4; for apparent disassociation constant Kd: 25° C., pH 7.4, single-site specific binding model; for maximum adsorption (Bmax): single-site specific binding model. As to the method:
The adsorption processes of all molecules to TiO2 surfaces at 25° C. and pH 7.4 were monitored by quartz crystal microbalance with dissipation (QCM-d). (See Example 7). Multivalent binding effects that enhanced the binding affinity were clear. In FIG. 2, to obtain a similar level of adsorption, ˜6 Hz frequency shift, the concentration of monovalent ligand, OGP-Cat, was 13 μM, while that of tetravalent ligand, OGP-(Cat)4 and OGP-PEG-(Cat)4, was 0.32 and 0.16 μM, respectively due to the mass differences. A much smaller amount of sample (˜80-fold less) was needed for the tetravalent ligand OGP-PEG-(Cat)4 compared with the monovalent ligand OGP-Cat to achieve the same level (mass) of surface adsorption. […] Under similar conditions, the monovalent ligand was partially washed away. The adsorption kinetics were recorded by QCM-d, with regard to OGP-PEG-(Cat)4, and 2 hours were needed to reach the equilibrium state at a concentration of 0.16 μM.
To quantitatively compare the binding affinities of the multivalent binding ligands, their adsorption properties at several different concentrations were measured. The solutions at higher concentrations were switched to flow above the sensor, until the adsorption of previous solution at lower concentration reached the equilibrium state (the change in frequency shift is smaller than the signal fluctuation, 0.05 Hz/min), taking OGP-Cat as an example shown in FIG. 3A. In these experiments, the adsorption of OGP-Cat onto TiO2 surface at different concentrations was measured by QCM-d, while the concentration was increased sequentially (c1=0.068 μmol/L, c2=0.34 μmol/L, c3=1.8 μmol/L, c4=7.3 μmol/L, c5=13 μmol/L, and c6=34 μmol/L). At last the adsorbed layer was washed with 25 mM HEPES buffer. The flow rate was 0.150 mL/min. Three independent measurements (Sensors 1-3) are shown on FIG. 3A. The corresponding frequency shift was calculated using Sauerbrey Equation to get the adsorbed area mass. The adsorption isotherm of each molecule was drawn and fit with a single-site specific binding model to get the apparent disassociation constant (Kd) and maximum adsorption (Bmax) of OGP-Cat as in FIG. 3B and others in FIGS. 4A-F from the adsorbed area mass at the respective concentrations.
(§1) Quartz crystal microbalance with dissipation (QCM-d) was used to determine the binding isotherm for OGP-(Cat)4 on TiO2, Fe2O3, Fe3O4, ZrO2, CeO2, SiO2, and Au substrates. The AT cut sensors were purchased from Biolin Scientific AB (Sweden) and cleaned before use according to the protocol provided by the company. The sensor was excited at 5 MHz as its fundamental frequency. The frequency shift (Δf) and dissipation (ΔD) were measured at 3rd, 5th, 7th, 9th, 11th and 13th overtones. 25 mM HEPES buffer (pH=7.40 at 25° C.) was used as the flow medium. Sensors were mounted in the modules immediately after cleaning. […] Then solutions of catechol-bearing peptide (OGP-(Cat)4) in HEPES buffer were introduced and the flow continued until the adsorption reached its equilibrium state. If necessary, solutions at higher concentrations were introduced sequentially. Lastly, HEPES buffer was introduced again to wash the adsorbed layer. Three independent measurements were done simultaneously. The results are reported on FIG. 5.
The QCM-d measurements in Example 7 above may be used to calculate the adsorbed area mass. The adsorbed area mass was proportional to the frequency shift (Δf) and calculated by the Sauerbrey Equation. Sauerbrey Equation is
[formula] where C is the mass sensitivity constant with the value of 17.7 ng Hz^−1 cm^−2 for 5 MHz fundamental frequency crystal, n is the frequency overtone number, and n=7 was chosen to calculate the adsorption area mass. As long as the adsorbed mass is small compared to the crystal, sufficiently thin, and has limited viscoelastic coupling with the surrounding medium (ΔD<1×10^−6 per 10 Hz), this relationship is valid. […]

Data set [4] in a line: QCM-d adsorption of OGP-(Cat)4 to SiO2. In kind it is binding. As to the method:
(§2) The adsorption of tetravalent binding ligand OGP-(Cat)4 to a wide range of materials was tested to identify common features of materials to which the catechol-bearing ligands of various embodiments of the present invention strongly bind. […] While not wanting to be bound by theory, it is believed that this is because the coordination bond between catechol and metals with empty d-orbitals or f-orbitals provides a stronger interaction than Hydrogen bonding. […] Therefore, it is believed that OGP-(Cat)4 will be highly useful for the functionalization of transition metal oxides.
as §1, with “If necessary, solutions at higher concentrations were introduced sequentially. Lastly, HEPES buffer was introduced again to wash the adsorbed layer. Three independent measurements were done simultaneously. The results are reported on FIG. 5.” left out

The nature of data set [5]: QCM-d adsorption of OGP-(Cat)4 to CeO2. Particulars: c=1 μM. In kind it is binding. The method, then: as §2
as §1, with “If necessary, solutions at higher concentrations were introduced sequentially. Lastly, HEPES buffer was introduced again to wash the adsorbed layer. Three independent measurements were done simultaneously. The results are reported on FIG. 5.” left out

The nature of data set [6]: XPS of immobilized modular peptides on TiO2 substrates and retention in HEPES buffer. In kind it is physicochemical. Particulars: HEPES buffer pH 7.4. The method, then:
Immobilization of peptides onto TiO2 surface was accomplished by immersing the TiO2 substrates into the corresponding modular peptide solution and incubating it overnight at ambient temperature. The successful immobilization of OGP-Cat and OGP-(Cat)4 onto TiO2-coated substrates were confirmed by XPS. Nitrogen is the element contained only in the modular peptides while not in bare TiO2, as shown in the XPS survey scan of bare TiO2 and OGP-(Cat)4 in FIG. 9A. […] It is noted that the N1s peaks in FIG. 9B are normalized to the highest intensity (O1s) for comparison of the signal to noise ratio.
To quantify the increase in nitrogen due to adsorption of OGP-Cat and OGP-(Cat)4, the nitrogen content (N1s) was normalized with Ti content (Ti2p), and compared with TiO2 substrate after incubation in HEPES buffer overnight (TiO2 as control), as show in Table 2, below.
To study the stability of sequestered modular peptides on targeting surfaces, the modular peptide immobilized TiO2 substrates were immersed in 25 mM HEPES buffer (pH=7.4 at 25° C.) and incubated for different durations. The mean intensity of FITC-labeled OGP-Cat immobilized TiO2 substrates after incubation was quantified to detect the diffusion of FITC-labeled OGP-Cat into surrounding solution. (See FIG. 11). […]

The nature of data set [7]: QCM-d adsorption of OGP-(Cat)4 to ZrO2. The conditions noted are these: c=1 μM. It is filed as binding. As to the method:
as §2
as §1, with “If necessary, solutions at higher concentrations were introduced sequentially. Lastly, HEPES buffer was introduced again to wash the adsorbed layer. Three independent measurements were done simultaneously. The results are reported on FIG. 5.” left out

Data set [8] is described as follows: QCM-d adsorption of OGP-(Cat)4 to iron oxide. In kind it is binding. The conditions noted are these: c=1 μM. The method, then: as §2
as §1, with “If necessary, solutions at higher concentrations were introduced sequentially. Lastly, HEPES buffer was introduced again to wash the adsorbed layer. Three independent measurements were done simultaneously. The results are reported on FIG. 5.” left out

A short description of data set [9]: QCM-d adsorption of OGP-(Cat)4 to hydroxyapatite. It is filed as binding. The conditions noted are these: c=10 μM. As to the method: as §2
Data set [10] in a line: QCM-d adsorption of OGP-(Cat)4 to Al2O3. In kind it is binding. Particulars: c=10 μM. As to the method: as §2
A short description of data set [11]: QCM-d adsorption of OGP-(Cat)4 to gold. It is filed as binding. The method, then:
as §2
as §1, with “If necessary, solutions at higher concentrations were introduced sequentially. Lastly, HEPES buffer was introduced again to wash the adsorbed layer. Three independent measurements were done simultaneously. The results are reported on FIG. 5.” left out

“Also recorded” adds a separate entry of the source. Peptide text beside a SMILES is read from it. * marks the point of attachment. X1 = O=C(CCc1ccc(O)c(O)c1)NCCCC[C@H](NC(=O)CCc1ccc(O)c(O)c1)C(=O)*; FITC = O=C1OC2(c3ccc(O)cc3Oc3cc(O)ccc32)c2ccc(NC(=S)*)cc21; Dihydrocaffeoyl = O=C(CCc1ccc(O)c(O)c1)* Bounds are passed on as bounds.

In the case of `O=C(O)CNC(=O)CNC(=O)[C@H](Cc1ccccc1)NC(=O)CNC(=O)[C@H](Cc1ccc(O)cc1)NC(=O)[C@H](CCCCNC(=S)Nc1ccc2c(c1)C(=O)OC21c2ccc(O)cc2Oc2cc(O)ccc21)NC(=O)CCc1ccc(O)c(O)c1` [FITC-labeled OGP-Cat] (Dihydrocaffeoyl-K(FITC)YGFGG-OH), in data set [1], the viability (commonly a read-out of living cells in per cent, often relative to untreated cells) at 24 h is > 98%. In addition, the “mean fluorescence intensity after incubation” value in data set [2] is “deceased by about a half”.
As to `O=C(O)CNC(=O)CNC(=O)[C@H](Cc1ccccc1)NC(=O)CNC(=O)[C@H](Cc1ccc(O)cc1)NC(=O)[C@H](CCCCNC(=O)[C@H](CCCCNC(=O)CCc1ccc(O)c(O)c1)NC(=O)CCc1ccc(O)c(O)c1)NC(=O)[C@H](CCCCNC(=O)CCc1ccc(O)c(O)c1)NC(=O)CCc1ccc(O)c(O)c1` [OGP-(Cat)4] (Dihydrocaffeoyl-K(Dihydrocaffeoyl)K(X1)YGFGG-OH), the “concentration to obtain ~6 Hz frequency shift” value in data set [3] was determined as 0.32 µM. In data set [3] (TiO2 surface), the Kd (commonly the concentration at which binding is half-saturated) worked out at 31 ± 3 nM, the “apparent disassociation constant Kd” value amounted to 31 ± 3 nM and the “maximum adsorption (Bmax)” value was found to be 160 ± 6 ng/cm^2. Moreover, the “binding to TiO2” value in data set [3] (c=1 μM) was “strongest binding”. Further, the “enhancement parameter β = Ka,multi/Ka,mono” value in data set [3] (multivalent vs monovalent ligand within set with or without PEG linkage) came out at 184. In [3] (solution at 100×Kd (2.8 μM) or Kd (28 nmol/L)), the “coverage of binding sites / maximum adsorption on TiO2” value is 99%. For the same compound, the “adsorption to SiO2” value in data set [4] (c=1 μM) was “weak adsorption”. The “adsorption to SiO2” value in data set [4] (c=10 μM) was “weakly adsorbed; also recorded: Limited adsorption”. For the same compound, in data set [5], the “binding to CeO2” value is “strongest binding”. In addition, the “incubation time after which decrease of N1s signal was detected” value in [6] worked out at 14 days. Also, the “binding to ZrO2” value in data set [7] is on record as “strongest binding”. Besides, the “binding to iron oxide” value in data set [8] is listed as “strong binding”. Moreover, the “adsorption to hydroxyapatite (HA)” value in data set [9] is reported as “weakly adsorbed; also recorded: Limited adsorption”. Moreover, in [10], the “adsorption to Al2O3” value is “weakly adsorbed; also recorded: Limited adsorption”. The “adsorption to gold” value in data set [11] (c=1 μM) is “some adsorption”. The “adsorption to Au” value in data set [11] (c=10 μM) is “relatively strongly adsorbed”.
Consider `NCCCC[C@H](NC(=O)CCc1ccc(O)c(O)c1)C(=O)N[C@@H](Cc1ccc(O)cc1)C(=O)NCC(=O)N[C@@H](Cc1ccccc1)C(=O)NCC(=O)NCC(=O)O` [OGP-Cat] (Dihydrocaffeoyl-KYGFGG-OH), for which, in [3], the “concentration to obtain ~6 Hz frequency shift” value is 13 µM. Also, in [3] (TiO2 surface), the “apparent disassociation constant Kd” value is 5700 ± 200 nM and the “maximum adsorption (Bmax)” value is on record as 54 ± 4 ng/cm^2. The “incubation time after which decrease of N1s signal was detected” value in data set [6] is 0.5 days.
